For experiment [1], the system named is Escherichia coli EC-1: VOGEL, mouse virulent. The experiment is described as follows: MIC determination (CLSI), strain EC-1. Particulars: strain EC-1; unit assumed. The class given is cell-based. In outline:
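The mouse-virulent VOGEL isolate of E. coli, EC-1, served as test organism. Minimum inhibitory concentration was measured by CLSI dilution methodology (M7-A7; M100-S18 standards).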

Experiment [2] deals with Pseudomonas aeruginosa UI-18: Wild-type (PA-7). The experiment is described as follows: MIC determination (CLSI), strain PA-7. It counts as cell-based. Particulars: strain PA-7; unit assumed. The method in brief: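 MIC determined by broth dilution per CLSI M7-A7 guidelines with M100-S18 interpretive standards. Test organism: wild-type Pseudomonas aeruginosa UI-18, designated PA-7.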

Here are results for 29 compounds from patent publication US8846933B2, “N-link hydroxamic acid derivatives useful as antibacterial agents” (Pfizer Inc., priority 2009, dated 2014).

The structures appear in SMILES notation.

Take `C[C@@](CCn1ccc(-c2ccc(OCCCC3CCN(C(=O)CO)CC3)cc2)cc1=O)(C(=O)NO)S(C)(=O)=O` [Example 313, (2R)-4-[4-{4-[3-(1-glycoloylpiperidin-4-yl)propoxy]phenyl}-2-oxopyridin-1(2H)-yl]-N-hydroxy-2-methyl-2-(methylsulfonyl)butanamide]: the EC-1 (MIC) in experiment [1] was determined as 0.5 µg/mL. In addition, in experiment [2], the PA-7 (MIC) was 4 µg/mL.
Taken in the same sequence, the figures for `C[C@@](CCn1ccc(-c2ccc3cc(OCCO)ccc3c2)cc1=O)(C(=O)NO)S(C)(=O)=O` [Example 314, (2R)-N-hydroxy-4-{4-[6-(2-hydroxyethoxy)-2-naphthyl]-2-oxopyridin-1(2H)-yl}-2-methyl-2-(methylsulfonyl)butanamide] were 0.5 µg/mL and 1 µg/mL.
Taken in the same sequence, the figures for `C[C@@](CCn1ccc(-c2ccc3cc(CO)ccc3c2)cc1=O)(C(=O)NO)S(C)(=O)=O` [Example 315, (2R)-N-hydroxy-4-{4-[6-(hydroxymethyl)-2-naphthyl]-2-oxopyridin-1(2H)-yl}-2-methyl-2-(methylsulfonyl)butanamide] were 0.5 µg/mL and 1 µg/mL.
As for `C[C@@](CCn1ccc(-c2ccc3ncc(F)cc3c2)cc1=O)(C(=O)NO)S(C)(=O)=O` [Example 316, (2R)-4-[4-(3-fluoroquinolin-6-yl)-2-oxopyridin-1(2H)-yl]-N-hydroxy-2-methyl-2-(methylsulfonyl)butanamide], the EC-1 (MIC) in experiment [1] was 4 µg/mL. Besides, the PA-7 (MIC) in experiment [2] turned out to be 2 µg/mL.
In the same order, the values of `COc1ccc(-c2ccn(CC[C@](C)(C(=O)NO)S(C)(=O)=O)c(=O)c2)cc1F` [Example 317, (2R)-4-[4-(3-fluoro-4-methoxyphenyl)-2-oxopyridin-1(2H)-yl]-N-hydroxy-2-methyl-2-(methylsulfonyl)butanamide] are 2 µg/mL and 1 µg/mL.
Taken in the same sequence, the figures for `C[C@@](CCn1ccc(-c2ccc(OC[C@H]3CC[C@H](O)CC3)c(F)c2)cc1=O)(C(=O)NO)S(C)(=O)=O` [Example 318, (2R)-4-[4-{3-fluoro-4-[(trans-4-hydroxycyclohexyl)methoxy]phenyl}-2-oxopyridin-1(2H)-yl]-N-hydroxy-2-methyl-2-(methylsulfonyl)butanamide] were 0.25 µg/mL and 1 µg/mL.
Taken in the same sequence, the figures for `C[C@@](CCn1ccc(-c2ccc(SCCCCO)cc2)cc1=O)(C(=O)NO)S(C)(=O)=O` [Example 319] were 0.25 µg/mL and 1 µg/mL.
In experiment [1], `CC(=O)c1ccc(-c2ccn(CC[C@](C)(C(=O)NO)S(C)(=O)=O)c(=O)c2)c(F)c1` [Example 320] gave an EC-1 (MIC) of 1 µg/mL. Besides, in experiment [2], the PA-7 (MIC) is 2 µg/mL.
Taken in the same sequence, the figures for `C[C@@](CCn1ccc(-c2ccc(F)cc2F)cc1=O)(C(=O)NO)S(C)(=O)=O` [Example 321, (2R)-4-[4-(2,4-difluorophenyl)-2-oxopyridin-1(2H)-yl]-N-hydroxy-2-methyl-2-(methylsulfonyl)butanamide] were 1 µg/mL and 1 µg/mL.
Compound `Cc1ccc(-c2ccn(CC[C@](C)(C(=O)NO)S(C)(=O)=O)c(=O)c2)cc1F` [Example 322, (2R)-4-[4-(3-fluoro-4-methylphenyl)-2-oxopyridin-1(2H)-yl]-N-hydroxy-2-methyl-2-(methylsulfonyl)butanamide] gave an EC-1 (MIC) in experiment [1] of 0.5 µg/mL. In addition, in experiment [2], the PA-7 (MIC) is 0.5 µg/mL.
Take `Cc1cccc(-c2ccn(CC[C@](C)(C(=O)NO)S(C)(=O)=O)c(=O)c2)c1F` [Example 323, (2R)-4-[4-(2-fluoro-3-methylphenyl)-2-oxopyridin-1(2H)-yl]-N-hydroxy-2-methyl-2-(methylsulfonyl)butanamide]: the EC-1 (MIC) in experiment [1] came to 0.25 µg/mL. This compound also displayed a PA-7 (MIC) in experiment [2] of 0.5 µg/mL.
In the same order, the values of `Cc1c(OCCCCO)ccc(-c2ccn(CC[C@](C)(C(=O)NO)S(C)(=O)=O)c(=O)c2)c1F` [Example 324] are 0.25 µg/mL and 2 µg/mL.
In the same order, the values of `Cc1cc(-c2ccn(CC[C@](C)(C(=O)NO)S(C)(=O)=O)c(=O)c2)ccc1F` [Example 325, (2R)-4-[4-(4-fluoro-3-methylphenyl)-2-oxopyridin-1(2H)-yl]-N-hydroxy-2-methyl-2-(methylsulfonyl)butanamide] are 0.5 µg/mL and 0.5 µg/mL.
In the same order, the values of `CC1(O)CCC(Oc2ccc(-c3ccn(CC[C@](C)(C(=O)NO)S(C)(=O)=O)c(=O)c3)c(F)c2)CC1` (stereo partly drawn) [Example 326, (2R)-4-[4-{2-fluoro-4-[(4-hydroxy-4-methylcyclohexyl)oxy]phenyl}-2-oxopyridin-1(2H)-yl]-N-hydroxy-2-methyl-2-(methylsulfonyl)butanamide] are 0.5 µg/mL and 4 µg/mL.
`C[C@@](CCn1ccc(-c2ccc3[nH]c(=O)ccc3c2)cc1=O)(C(=O)NO)S(C)(=O)=O` [Example 327, (2R)-N-hydroxy-2-methyl-2-(methylsulfonyl)-4-[2-oxo-4-(2-oxo-1,2-dihydroquinolin-6-yl)pyridin-1(2H)-yl]butanamide] registered an EC-1 (MIC) in experiment [1] of 4 µg/mL. Moreover, in experiment [2], the PA-7 (MIC) is above 64 µg/mL.
In the same order, the values of `COc1ccc2cc(-c3ccn(CC[C@](C)(C(=O)NO)S(C)(=O)=O)c(=O)c3)ccc2n1` [Example 328, (2R)-N-hydroxy-4-[4-(2-methoxyquinolin-6-yl)-2-oxopyridin-1(2H)-yl]-2-methyl-2-(methylsulfonyl)butanamide] are 1 µg/mL and 1 µg/mL.
In the same order, the values of `C[C@@](CCn1ccc(-c2ccc(N3CCC(O)CC3)cc2)cc1=O)(C(=O)NO)S(C)(=O)=O` [Example 329, (2R)-N-hydroxy-4-{4-[4-(4-hydroxypiperidin-1-yl)phenyl]-2-oxopyridin-1(2H)-yl}-2-methyl-2-(methylsulfonyl)butanamide] are 1 µg/mL and 4 µg/mL.
With `C[C@@](CCn1ccc(-c2ccc3c(c2)OCCCO3)cc1=O)(C(=O)NO)S(C)(=O)=O` [Example 330, (2R)-4-[4-(3,4-dihydro-2H-1,5-benzodioxepin-7-yl)-2-oxopyridin-1(2H)-yl]-N-hydroxy-2-methyl-2-(methylsulfonyl)butanamide], in experiment [1], the EC-1 (MIC) worked out at 0.5 µg/mL. Also, the PA-7 (MIC) in experiment [2] is 4 µg/mL.
In the same order, the values of `C[C@@](CCn1ccc(-c2ccc(C(F)(F)F)nc2)cc1=O)(C(=O)NO)S(C)(=O)=O` [Example 331] are 0.25 µg/mL and 32 µg/mL.
Taken in the same sequence, the figures for `CCOc1ccc(-c2ccn(CC[C@](C)(C(=O)NO)S(C)(=O)=O)c(=O)c2)cc1` [Example 332, (2R)-4-[4-(4-ethoxyphenyl)-2-oxopyridin-1(2H)-yl]-N-hydroxy-2-methyl-2-(methylsulfonyl)butanamide] were 64 µg/mL and 0.5 µg/mL.
`C[C@@](CCn1ccc(-c2ccc(OCC#N)cc2)cc1=O)(C(=O)NO)S(C)(=O)=O` [Example 333, (2R)-4-{4-[4-(cyanomethoxy)phenyl]-2-oxopyridin-1(2H)-yl}-N-hydroxy-2-methyl-2-(methylsulfonyl)butanamide] gave an EC-1 (MIC) in experiment [1] of 16 µg/mL. The same compound yielded a PA-7 (MIC) in experiment [2] of 8 µg/mL.
In the same order, the values of `COc1ccc(-c2ccn(CC[C@](C)(C(=O)NO)S(C)(=O)=O)c(=O)c2)cc1Cl` [Example 334, (2R)-4-[4-(3-chloro-4-methoxyphenyl)-2-oxopyridin-1(2H)-yl]-N-hydroxy-2-methyl-2-(methylsulfonyl)butanamide] are 8 µg/mL and 1 µg/mL.
With `C[C@@](CCn1ccc(-c2cc(F)cc(F)c2)cc1=O)(C(=O)NO)S(C)(=O)=O` [Example 335, (2R)-4-[4-(3,5-difluorophenyl)-2-oxopyridin-1(2H)-yl]-N-hydroxy-2-methyl-2-(methylsulfonyl)butanamide], the EC-1 (MIC) in experiment [1] is 1 µg/mL. The compound further yielded a PA-7 (MIC) in experiment [2] of 2 µg/mL.
In the same order, the values of `C[C@@](CCn1ccc(-c2cc(Cl)cc(Cl)c2)cc1=O)(C(=O)NO)S(C)(=O)=O` [Example 336, (2R)-4-[4-(3,5-dichlorophenyl)-2-oxopyridin-1(2H)-yl]-N-hydroxy-2-methyl-2-(methylsulfonyl)butanamide] are 4 µg/mL and 8 µg/mL.
In the same order, the values of `C[C@@](CCn1ccc(-c2ccc(OC3CCNCC3)c(F)c2)cc1=O)(C(=O)NO)S(C)(=O)=O` [Example 337, (2R)-4-{4-[3-fluoro-4-(piperidin-4-yloxy)phenyl]-2-oxopyridin-1(2H)-yl}-N-hydroxy-2-methyl-2-(methylsulfonyl)butanamide] are above 64 µg/mL and above 64 µg/mL.
Taken in the same sequence, the figures for `C[C@@](CCn1ccc(-c2ccc(OC(F)F)cc2)cc1=O)(C(=O)NO)S(C)(=O)=O` [Example 338, (2R)-4-{4-[4-(difluoromethoxy)phenyl]-2-oxopyridin-1(2H)-yl}-N-hydroxy-2-methyl-2-(methylsulfonyl)butanamide] were 0.5 µg/mL and 0.5 µg/mL.
With `C[C@@](CCn1ccc(-c2ccc3c(c2)CCC3=O)cc1=O)(C(=O)NO)S(C)(=O)=O` [Example 339, (2R)-N-hydroxy-2-methyl-2-(methylsulfonyl)-4-[2-oxo-4-(1-oxo-2,3-dihydro-1H-inden-5-yl)pyridin-1(2H)-yl]butanamide], the EC-1 (MIC) in experiment [1] was 4 µg/mL. Besides, in experiment [2], the PA-7 (MIC) came out at 4 µg/mL.
Take `C[C@@](CCn1ccc(-c2ccc(-c3cnco3)cc2)cc1=O)(C(=O)NO)S(C)(=O)=O` [Example 340, (2R)-N-hydroxy-2-methyl-2-(methylsulfonyl)-4-{4-[4-(1,3-oxazol-5-yl)phenyl]-2-oxopyridin-1(2H)-yl}butanamide]: the EC-1 (MIC) in experiment [1] is 0.25 µg/mL. The compound also came in with a PA-7 (MIC) in experiment [2] of 1 µg/mL.
Taken in the same sequence, the figures for `C[C@@](CCn1ccc(-c2ccccc2Cl)cc1=O)(C(=O)NO)S(C)(=O)=O` [Example 341, (2R)-4-[4-(2-chlorophenyl)-2-oxopyridin-1(2H)-yl]-N-hydroxy-2-methyl-2-(methylsulfonyl)butanamide] were 4 µg/mL and 2 µg/mL.
